For eight molecules, Kd, EC50 and CC50 results are on record in ChEMBL document CHEMBL5053554, “Identification of novel influenza polymerase PB2 inhibitors using virtual screening approach and molecular dynamics simulation analysis of active compounds” (Bioorg Med Chem, 2021).

A value given as a limit tells only on which side of the number the result lay.

Data set [1] concerns the target Polymerase basic protein 2 (Influenza A virus (strain A/Puerto Rico/8/1934 H1N1), UniProt P03428). Nature of the data set: Binding affinity to CM5 immobilized N-terminal His/Sumo tagged Influenza A virus (A/WSN/1933(H1N1)) PB2 CBD (318 to 486 residues) expressed in Escherichia coli by surface plasmon resonance assay.
Data set [2] relates to Influenza A virus (A/Puerto Rico/8/1934(H1N1)). Nature of the data set: Antiviral activity against Influenza A virus (A/Puerto Rico 8/1934 (H1N1)) infected in MDCK cells assessed as inhibition of virus-induced cytopathic effect measured after 72 hrs by CellTiter-Glo viability assay. Type of data set: functional, organism-based. A general note: Damage to the host cells serves as the signal in cytopathic effect assays.

Data set [3] is described as follows: Cytotoxicity against MDCK cells assessed as reduction in cell viability measured after 72 hrs by CCK8 analysis. Type of data set: cell-based, Canis lupus familiaris. The note with it: dog.
Data set [4] can be described thus: Antiviral activity against Influenza A virus (A/Hong Kong/1-8/1968(H3N2)) infected in MDCK cells assessed as inhibition of virus-induced cytopathic effect measured after 72 hrs by CellTiter-Glo viability assay. The class given is functional, cell-based.

Polymerase basic protein 2, sequence (P03428 whole entry, the tested form may be a part): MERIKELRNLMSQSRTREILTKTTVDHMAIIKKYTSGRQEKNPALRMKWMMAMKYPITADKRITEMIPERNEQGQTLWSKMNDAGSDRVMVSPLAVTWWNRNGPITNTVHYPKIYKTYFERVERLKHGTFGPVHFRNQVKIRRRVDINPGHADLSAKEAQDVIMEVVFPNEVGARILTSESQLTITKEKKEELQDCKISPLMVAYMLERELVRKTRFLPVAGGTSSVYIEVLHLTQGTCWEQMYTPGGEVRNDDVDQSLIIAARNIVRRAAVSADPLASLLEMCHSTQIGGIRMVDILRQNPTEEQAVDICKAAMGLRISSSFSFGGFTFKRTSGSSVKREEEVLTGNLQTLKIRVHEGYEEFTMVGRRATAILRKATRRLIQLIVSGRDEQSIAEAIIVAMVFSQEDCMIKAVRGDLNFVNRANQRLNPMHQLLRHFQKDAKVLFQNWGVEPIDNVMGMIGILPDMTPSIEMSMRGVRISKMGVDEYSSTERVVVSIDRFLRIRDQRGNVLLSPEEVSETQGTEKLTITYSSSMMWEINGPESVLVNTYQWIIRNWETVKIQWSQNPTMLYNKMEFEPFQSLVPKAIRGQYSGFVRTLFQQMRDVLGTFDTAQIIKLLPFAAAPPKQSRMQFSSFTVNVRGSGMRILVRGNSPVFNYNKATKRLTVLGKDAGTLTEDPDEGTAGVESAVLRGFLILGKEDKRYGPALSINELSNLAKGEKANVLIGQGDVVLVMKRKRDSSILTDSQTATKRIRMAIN

Consider `O=C(O)CSc1nc(-c2ccccc2)nc2c1oc1ccccc12`, for which binding in data set [1] was characterised by a dissociation constant (Kd) of 0.25 µM. For the same molecule, the half-maximal effective concentration (EC50) in data set [2] is 22.4 µM; in data set [4], 27 µM. For the same molecule, the CC50 at 72 h in data set [3] was > 100 µM.

In data set [1], `O=c1[nH]c2ccc(NCc3ccc(Cl)c(Cl)c3)cc2[nH]1` yielded a Kd of 6.4 µM. The EC50 in data set [2] came out at 21.7 µM; in data set [4] it was 7.44 µM. Besides, the 50% cytotoxic concentration (CC50) at 72 h in data set [3] is > 100 µM.

For `O=C1c2ccccc2C(=O)c2cc(OC[C@H](O)Cn3cnc4ccccc43)ccc21`, the affinity in data set [1], expressed as Kd, was 2.2 µM. For the same molecule, the EC50 in data set [2] amounted to 33.2 µM; in data set [4], 25.2 µM. Further, the CC50 at 72 h in data set [3] was > 100 µM.

In data set [1], `O=C(O)CSc1cc(O)c2c(c1O)C(=O)c1ccccc1C2=O` displayed a Kd of 0.58 µM. Also, the concentration for a half-maximal effect (EC50) came to 5.81 µM in data set [2] and 7.55 µM in data set [4]. The CC50 at 72 h in data set [3] amounted to 49.7 µM.

As for `Cc1c(O[C@H](C(=O)O)c2ccccc2)ccc2c1oc(=O)c1ccccc12`, binding in data set [1] was characterised by a dissociation constant (Kd) of 0.11 µM. The EC50 in data set [2] worked out at 26.5 µM; in data set [4] it was 15.1 µM. For the same molecule, the CC50 at 72 h in data set [3] is > 100 µM.

In data set [1], `O=C(c1cc(=O)[nH]c2ccccc12)N1CCc2[nH]c3ccccc3c2C1` showed a Kd of 1.6 µM. Besides, the EC50 in data set [2] was 42.8 µM; in data set [4], 41.5 µM. Also, the cytotoxic concentration (CC50) at 72 h in data set [3] was > 100 µM.

Consider `CCC(CC)O[C@@H]1C=C(C(=O)O)C[C@H](N)[C@H]1NC(C)=O` [OSELTAMIVIR CARBOXYLATE], for which the values for the concentration for a half-maximal effect (EC50) in data set [2] and in data set [4] were 3.07 µM and 0.03 µM, respectively. In data set [3], the CC50 at 72 h was > 100 µM.

Turning to `O=C(O)[C@H]1C2CCC(CC2)[C@@H]1Nc1nc(-c2c[nH]c3ncc(F)cc23)ncc1F` [PIMODIVIR], in data set [1], the Kd worked out at 0.054 µM. Moreover, the results for the concentration for a half-maximal effect (EC50) in data set [2] and in data set [4] were < 0.005 µM and 1.84 µM, respectively. Besides, in data set [3], the CC50 at 72 h was > 100 µM.

For orientation: Kd means a measure of binding affinity in units of concentration. A high value points to a looser complex. In general, EC50 refers to the midpoint of the concentration-response curve. In general, CC50 refers to the concentration at which the toxic effect on the cells reaches its halfway point.
